# How the values were obtained:
# [1] = system: Monochoria vaginalis, Presl.; experiment: Preemergence weed control under flooded paddy conditions, MOOVA (Monochoria); format: in vivo; settings: flooded paddy; for herbicidal effect rating, MOOVA: rated three to four weeks after treatment; for MOOVA: herbicidal effect rating 0-9, three to four weeks after treatment; on herbicidal effect rating, MOOVA: meaning of each grade not given here
# [2] = system: Oryza sativa, (L.) Tebonnet; experiment: Rice tolerance to post-transplant applications under flooded paddy conditions (Example 187), ORYSAT (Rice, Tebonnet); settings: for herbicidal effect rating ORYSAT / herbicidal effect rating, ORYSAT (rice tolerance): rated three to four weeks after treatment; for ORYSAT: herbicidal effect rating 0-9, three to four weeks after treatment; on herbicidal effect rating ORYSAT: meaning of each grade not given here
# [3] = system: Sagittaria pygmaea, L.; experiment: Preemergence weed control under flooded paddy conditions, SAGPY (Arrowhead (Pygmaea)); format: in vivo; settings: flooded paddy; for herbicidal effect rating, SAGPY: rated three to four weeks after treatment; for SAGPY: herbicidal effect rating 0-9, three to four weeks after treatment; on herbicidal effect rating, SAGPY: meaning of each grade not given here
# [4] = system: Cyperus serotinus, Rottb.; experiment: Preemergence weed control under flooded paddy conditions, CYPSE (Flatsedge); format: in vivo; settings: for herbicidal effect rating, CYPSE: rated three to four weeks after treatment; for CYPSE: herbicidal effect rating 0-9, three to four weeks after treatment; on herbicidal effect rating, CYPSE: meaning of each grade not given here
# [5] = system: Echinochloa oryzoides (Ard.) Fritsch.; experiment: Preemergence weed control under flooded paddy conditions, ECHORC (Watergrass (Calif.)); format: in vivo; settings: flooded paddy; for herbicidal effect rating, ECHORC: rated three to four weeks after treatment; for ECHORC: herbicidal effect rating 0-9, three to four weeks after treatment; on herbicidal effect rating, ECHORC: meaning of each grade not given here
# [6] = system: Cyperus iria; experiment: Preemergence weed control under flooded paddy conditions, CYPIR (Rice Flatsedge); format: in vivo; settings: flooded paddy; for herbicidal effect rating, CYPIR: rated three to four weeks after treatment; for CYPIR: herbicidal effect rating 0-9, three to four weeks after treatment; on herbicidal effect rating, CYPIR: meaning of each grade not given here
# [7] = Rate 0.1250 kg/ha, preemergence
# [8] = Rate 0.2500 kg/ha, preemergence
# [9] = Rate 0.0320 kg/ha, preemergence
# [10] = Rate 0.0620 kg/ha, preemergence
# [11] = 0.0313 kg/ha, preemergence weeds
# [12] = 0.0625 kg/ha, preemergence weeds
# [13] = 0.1250 kg/ha, preemergence weeds
# [14] = 0.2500 kg/ha, preemergence weeds
# [15] = 0.0320 kg/ha, preemergence weeds
# [16] = 0.0620 kg/ha, preemergence weeds
structure (smiles),measurement,setting,value
"Cn1c(C(F)(F)F)cc(=O)n(-c2ccc3snc(COCc4cccc([N+](=O)[O-])c4)c3c2)c1=O [Example 588, 2,4(1H,3H)-Pyrimidinedione, 1-methyl-3-{3-{[(m-nitrobenzyl)oxy]methyl}-1,2-benzisothiazol-5-yl}-6-(trifluoromethyl)-]","herbicidal effect rating, MOOVA",[1]; [7],7.0
same,"herbicidal effect rating, MOOVA",[1]; [8],8.0
same,herbicidal effect rating ORYSAT,[2]; Rate 0.0320 kg/ha,0.0
same,herbicidal effect rating ORYSAT,[2]; Rate 0.0620 kg/ha,3.0
same,herbicidal effect rating ORYSAT,[2]; Rate 0.1250 kg/ha,3.0
same,herbicidal effect rating ORYSAT,[2]; Rate 0.2500 kg/ha,3.0
same,"herbicidal effect rating, SAGPY",[3]; [9],0.0
same,"herbicidal effect rating, SAGPY",[3]; [10],0.0
same,"herbicidal effect rating, SAGPY",[3]; [7],0.0
same,"herbicidal effect rating, SAGPY",[3]; [8],0.0
same,"herbicidal effect rating, CYPSE",[4]; [9],0.0
same,"herbicidal effect rating, CYPSE",[4]; [10],0.0
same,"herbicidal effect rating, CYPSE",[4]; [7],5.0
same,"herbicidal effect rating, CYPSE",[4]; [8],5.0
same,"herbicidal effect rating, ECHORC",[5]; [9],4.0
same,"herbicidal effect rating, ECHORC",[5]; [10],7.0
same,"herbicidal effect rating, ECHORC",[5]; [7],9.0
same,"herbicidal effect rating, ECHORC",[5]; [8],7.0
same,"herbicidal effect rating, CYPIR",[6]; [9],0.0
same,"herbicidal effect rating, CYPIR",[6]; [10],2.0
same,"herbicidal effect rating, CYPIR",[6]; [7],6.0
same,"herbicidal effect rating, CYPIR",[6]; [8],6.0
"C=CCOc1ccc(C)cc1-c1nsc2ccc(-n3c(=O)cc(C(F)(F)F)n(C)c3=O)cc12 [Example 65, 3-{3-[6-(Allyloxy)-m-tolyl]-1,2-benzisothiazol-5-yl}-1-methyl-6-(trifluoromethyl)-2,4(1H,3H)-pyrimidinedione]","herbicidal effect rating, MOOVA","[1]; 0.0313 kg/ha, preemergence",0.0
same,"herbicidal effect rating, MOOVA","[1]; 0.0625 kg/ha, preemergence",0.0
same,"herbicidal effect rating, MOOVA","[1]; 0.1250 kg/ha, preemergence",0.0
same,"herbicidal effect rating, MOOVA","[1]; 0.2500 kg/ha, preemergence",0.0
same,"herbicidal effect rating, ORYSAT (rice tolerance)",[2]; 0.0313 kg/ha,0.0
same,"herbicidal effect rating, ORYSAT (rice tolerance)",[2]; 0.0625 kg/ha,0.0
same,"herbicidal effect rating, ORYSAT (rice tolerance)",[2]; 0.1250 kg/ha,0.0
same,"herbicidal effect rating, ORYSAT (rice tolerance)",[2]; 0.2500 kg/ha,0.0
same,"herbicidal effect rating, SAGPY","[3]; 0.0313 kg/ha, preemergence",0.0
same,"herbicidal effect rating, SAGPY","[3]; 0.0625 kg/ha, preemergence",0.0
same,"herbicidal effect rating, SAGPY","[3]; 0.1250 kg/ha, preemergence",0.0
same,"herbicidal effect rating, SAGPY","[3]; 0.2500 kg/ha, preemergence",0.0
same,"herbicidal effect rating, CYPSE","[4]; 0.0313 kg/ha, preemergence",0.0
same,"herbicidal effect rating, CYPSE","[4]; 0.0625 kg/ha, preemergence",0.0
same,"herbicidal effect rating, CYPSE","[4]; 0.1250 kg/ha, preemergence",0.0
same,"herbicidal effect rating, CYPSE","[4]; 0.2500 kg/ha, preemergence",0.0
same,"herbicidal effect rating, ECHORC","[5]; 0.0313 kg/ha, preemergence",0.0
same,"herbicidal effect rating, ECHORC","[5]; 0.0625 kg/ha, preemergence",0.0
same,"herbicidal effect rating, ECHORC","[5]; 0.1250 kg/ha, preemergence",0.0
same,"herbicidal effect rating, ECHORC","[5]; 0.2500 kg/ha, preemergence",0.0
same,"herbicidal effect rating, CYPIR","[6]; 0.0313 kg/ha, preemergence",0.0
same,"herbicidal effect rating, CYPIR","[6]; 0.0625 kg/ha, preemergence",0.0
same,"herbicidal effect rating, CYPIR","[6]; 0.1250 kg/ha, preemergence",0.0
same,"herbicidal effect rating, CYPIR","[6]; 0.2500 kg/ha, preemergence",0.0
"CCOCN(C(=O)c1nsc2ccc(-n3c(=O)cc(C(F)(F)F)n(C)c3=O)cc12)S(C)(=O)=O [Example 370, 1,2-Benzisothiazole-3-carboxamide, 5-[3,6-dihydro-3-methyl-2,6-dioxo-4-(trifluoromethyl)-1(2H)-pyrimidinyl]-N-(ethoxymethyl)-N-(methylsulfonyl)-]","herbicidal effect rating, MOOVA",[1]; [9],7.0
same,"herbicidal effect rating, MOOVA",[1]; [10],9.0
same,"herbicidal effect rating, MOOVA",[1]; [7],9.0
same,"herbicidal effect rating, MOOVA",[1]; [8],9.0
same,herbicidal effect rating ORYSAT,[2]; Rate 0.0320 kg/ha,3.0
same,herbicidal effect rating ORYSAT,[2]; Rate 0.0620 kg/ha,4.0
same,herbicidal effect rating ORYSAT,[2]; Rate 0.1250 kg/ha,4.0
same,herbicidal effect rating ORYSAT,[2]; Rate 0.2500 kg/ha,5.0
same,"herbicidal effect rating, SAGPY",[3]; [9],0.0
same,"herbicidal effect rating, SAGPY",[3]; [10],3.0
same,"herbicidal effect rating, SAGPY",[3]; [7],7.0
same,"herbicidal effect rating, SAGPY",[3]; [8],9.0
same,"herbicidal effect rating, CYPSE",[4]; [9],0.0
same,"herbicidal effect rating, CYPSE",[4]; [10],4.0
same,"herbicidal effect rating, CYPSE",[4]; [7],7.0
same,"herbicidal effect rating, CYPSE",[4]; [8],9.0
same,"herbicidal effect rating, ECHORC",[5]; [9],3.0
same,"herbicidal effect rating, ECHORC",[5]; [10],4.0
same,"herbicidal effect rating, ECHORC",[5]; [7],6.0
same,"herbicidal effect rating, ECHORC",[5]; [8],7.0
same,"herbicidal effect rating, CYPIR",[6]; [9],4.0
same,"herbicidal effect rating, CYPIR",[6]; [10],7.0
same,"herbicidal effect rating, CYPIR",[6]; [7],9.0
same,"herbicidal effect rating, CYPIR",[6]; [8],9.0
"Cc1ccc(OC(C)C)c(-c2nsc3ccc(-n4c(=O)cc(C(F)(F)F)n(C)c4=O)cc23)c1 [Example 59, 3-[3-(6-Isopropoxy-m-tolyl)-1,2-benzisothiazol-5-yl]-1-methyl-6-(trifluoromethyl)-2,4(1H,3H)-pyrimidinedione]","herbicidal effect rating, MOOVA","[1]; 0.0313 kg/ha, preemergence",9.0
same,"herbicidal effect rating, MOOVA","[1]; 0.0625 kg/ha, preemergence",9.0
same,"herbicidal effect rating, MOOVA","[1]; 0.1250 kg/ha, preemergence",9.0
same,"herbicidal effect rating, MOOVA","[1]; 0.2500 kg/ha, preemergence",9.0
same,"herbicidal effect rating, ORYSAT (rice tolerance)",[2]; 0.0313 kg/ha,2.0
same,"herbicidal effect rating, ORYSAT (rice tolerance)",[2]; 0.0625 kg/ha,3.0
same,"herbicidal effect rating, ORYSAT (rice tolerance)",[2]; 0.1250 kg/ha,4.0
same,"herbicidal effect rating, ORYSAT (rice tolerance)",[2]; 0.2500 kg/ha,4.0
same,"herbicidal effect rating, SAGPY","[3]; 0.0313 kg/ha, preemergence",0.0
same,"herbicidal effect rating, SAGPY","[3]; 0.0625 kg/ha, preemergence",0.0
same,"herbicidal effect rating, SAGPY","[3]; 0.1250 kg/ha, preemergence",0.0
same,"herbicidal effect rating, SAGPY","[3]; 0.2500 kg/ha, preemergence",0.0
same,"herbicidal effect rating, CYPSE","[4]; 0.0313 kg/ha, preemergence",0.0
same,"herbicidal effect rating, CYPSE","[4]; 0.0625 kg/ha, preemergence",0.0
same,"herbicidal effect rating, CYPSE","[4]; 0.1250 kg/ha, preemergence",0.0
same,"herbicidal effect rating, CYPSE","[4]; 0.2500 kg/ha, preemergence",0.0
same,"herbicidal effect rating, ECHORC","[5]; 0.0313 kg/ha, preemergence",9.0
same,"herbicidal effect rating, ECHORC","[5]; 0.0625 kg/ha, preemergence",9.0
same,"herbicidal effect rating, ECHORC","[5]; 0.1250 kg/ha, preemergence",9.0
same,"herbicidal effect rating, ECHORC","[5]; 0.2500 kg/ha, preemergence",9.0
same,"herbicidal effect rating, CYPIR","[6]; 0.0313 kg/ha, preemergence",7.0
same,"herbicidal effect rating, CYPIR","[6]; 0.0625 kg/ha, preemergence",7.0
same,"herbicidal effect rating, CYPIR","[6]; 0.1250 kg/ha, preemergence",8.0
same,"herbicidal effect rating, CYPIR","[6]; 0.2500 kg/ha, preemergence",9.0
"C#CCNC(=O)COc1ccc(C)cc1-c1noc2ccc(-n3c(=O)cc(C(F)(F)F)n(C)c3=O)cc12 [Example 193, 2-{{2-{5-[3,6-Dihydro-3-methyl-2,6-dioxo-4-(trifluoromethyl)-1(2H)-pyrimidinyl]-1,2-benzisoxazol-3-yl}-p-tolyl}oxy}-N-(2-propynyl)acetamide]","herbicidal effect rating, MOOVA",[1]; [11],2.0
same,"herbicidal effect rating, MOOVA",[1]; [12],4.0
same,"herbicidal effect rating, MOOVA",[1]; [13],9.0
same,"herbicidal effect rating, MOOVA",[1]; [14],9.0
same,"herbicidal effect rating, ORYSAT (rice tolerance)",[2]; 0.0313 kg/ha,0.0
same,"herbicidal effect rating, ORYSAT (rice tolerance)",[2]; 0.0625 kg/ha,0.0
same,"herbicidal effect rating, ORYSAT (rice tolerance)",[2]; 0.1250 kg/ha,0.0
same,"herbicidal effect rating, ORYSAT (rice tolerance)",[2]; 0.2500 kg/ha,1.0
same,"herbicidal effect rating, SAGPY",[3]; [11],0.0
same,"herbicidal effect rating, SAGPY",[3]; [12],0.0
same,"herbicidal effect rating, SAGPY",[3]; [13],0.0
same,"herbicidal effect rating, SAGPY",[3]; [14],0.0
same,"herbicidal effect rating, CYPSE",[4]; [11],0.0
same,"herbicidal effect rating, CYPSE",[4]; [12],0.0
same,"herbicidal effect rating, CYPSE",[4]; [13],0.0
same,"herbicidal effect rating, CYPSE",[4]; [14],0.0
same,"herbicidal effect rating, ECHORC",[5]; [11],0.0
same,"herbicidal effect rating, ECHORC",[5]; [12],0.0
same,"herbicidal effect rating, ECHORC",[5]; [13],0.0
same,"herbicidal effect rating, ECHORC",[5]; [14],0.0
same,"herbicidal effect rating, CYPIR",[6]; [11],0.0
same,"herbicidal effect rating, CYPIR",[6]; [12],0.0
same,"herbicidal effect rating, CYPIR",[6]; [13],0.0
same,"herbicidal effect rating, CYPIR",[6]; [14],0.0
"CCOCOCc1nsc2ccc(-n3c(=O)cc(C(F)(F)F)n(C)c3=O)cc12 [Example 455, 2,4(1H,3H)-Pyrimidinedione, 3-(3-[(ethoxymethoxy)methyl]-1,2-benzisothiazol-5-yl}-1-methyl-6-(trifluoromethyl)-]",MOOVA,[1]; [15],6.0
same,MOOVA,[1]; [16],7.0
same,MOOVA,[1]; [13],9.0
same,MOOVA,[1]; [14],9.0
same,ORYSAT,[2]; 0.0320 kg/ha,6.0
same,ORYSAT,[2]; 0.0620 kg/ha,8.0
same,ORYSAT,[2]; 0.1250 kg/ha,9.0
same,ORYSAT,[2]; 0.2500 kg/ha,9.0
same,SAGPY,[3]; [15],4.0
same,SAGPY,[3]; [16],6.0
same,SAGPY,[3]; [13],7.0
same,SAGPY,[3]; [14],9.0
same,CYPSE,[4]; [15],2.0
same,CYPSE,[4]; [16],6.0
same,CYPSE,[4]; [13],8.0
same,CYPSE,[4]; [14],9.0
same,ECHORC,[5]; [15],9.0
same,ECHORC,[5]; [16],9.0
same,ECHORC,[5]; [13],9.0
same,ECHORC,[5]; [14],9.0
same,CYPIR,[6]; [15],6.0
same,CYPIR,[6]; [16],7.0
same,CYPIR,[6]; [13],9.0
same,CYPIR,[6]; [14],9.0

# Source: patent EP0908457B1, “3-(1,2-benzisothiazol- and isoxazol-5-Y1)-2,4(1H,3H)-pyrimidinedione or thione and 3-(1,2-benzisothiazol- and isoxazol-5-y1)-4(3H)-pyrimidinone or thione herbicidal agents” (BASF AKTIENGESELLSCHAFT, priority 1997, dated 1999)
